Where two headings read alike, the source gives them in different places.
How the values were obtained:
vaccinia virus (VV) [1] = test: microbe, parasite or virus in culture; format: cell-based
cowpox virus (CV) [2] = test: microbe, parasite or virus in culture; format: cell-based
in vitro = conditions: human
vaccinia virus (VV) [3] = conditions: read-out: EC50 Vaccinia; Table 4; ref Kern et al. (2002); cited from earlier work
cowpox virus (CV) [4] = conditions: read-out: EC50 Cowpox; cited from earlier work
Monkeypox = conditions: read-out: EC50 Monkeypox; cited from earlier work
Variola = conditions: read-out: EC50 Variola; cited from earlier work
[5] = Orthopoxvirus vaccinia, HFF, read-out: EC50 VV
[6] = Cowpox virus, HFF, read-out: EC50 CV
[7] = Orthopoxvirus vaccinia, HFF, read-out: Vaccinia virus EC50
[8] = Cowpox virus, HFF, read-out: Cowpox virus EC50

| Compound | EC50 (vaccinia virus (VV) [1]; read-out: Vaccinia virus EC50) | EC50 (cowpox virus (CV) [2]; read-out: Cowpox virus EC50) | CC50 (HFF cells) | EC50 (vaccinia virus (VV) [1]; [5]) | EC50 (cowpox virus (CV) [2]; [6]) | also measured |
| --- | --- | --- | --- | --- | --- | --- |
| CCCCOC(=O)C(C)NP(=O)(COCCn1cnc2c(NC3CC3)nc(N)nc21)NC(C)C(=O)OCCCC (stereo not shown) [Bis(butylalaninyl) PME(N^6-cyclopropyl)DAP] | 0.08 ± 0.01 µM | 0.26 ± 0.2 µM | 49 ± 33 µM | – | – | – |
| O=c1[nH]c(=O)n([C@H]2C[C@H](O)[C@@H](CO)O2)cc1I [Idoxuridine] | – | – | – | 6 µM | 2 µM | – |
| CC(C)OC(=O)OCOP(=O)(CO[C@H](C)Cn1cnc2c(N)ncnc21)OCOC(=O)OC(C)C [Viread] | – | – | – | > 300 µM | > 300 µM | – |
| Nc1nc(N)c2ncn(CCOCP(=O)(O)O)c2n1 [PMEDAP] | – | – | – | – | – | EC50 (vaccinia virus (VV) [1]; [7]): 204 ± 15 µM; EC50 (cowpox virus (CV) [2]; [8]): > 347 µM; CC50 (in vitro): > 339 µM |
| O=C(O)P(=O)(O)O [Foscarnet] | – | – | – | > 300 µM | > 300 µM | – |
| Nc1ncnc2c1ncn2C[C@@H](CO)OCP(=O)(O)O [HPMPA, (S)-9-(3-hydroxy-2-phosphonylmethoxypropyl)adenine] | 3.5 ± 2.8 µM | 5 ± 4.7 µM | 269 ± 21 µM | – | – | fold more active than CDV (vaccinia virus (VV) [1]): about 10 fold |
| Nc1nc(=O)c2ncn([C@@H]3C[C@H](CO)[C@H]3CO)c2[nH]1 [Lobucavir] | – | – | – | 27 µM | 66 µM | – |
| Nc1cccc(CN2C(=O)N(Cc3cccc(N)c3)[C@H](Cc3ccccc3)[C@H](O)[C@@H](O)[C@H]2Cc2ccccc2)c1 [Mozenavir] | – | – | – | > 100 µM | > 100 µM | – |
| Nc1nc2c(ncn2CCOCP(=O)(O)O)c(=O)[nH]1 [PMEG, 2-phosphonylmethoxyethyl guanine] | 4 ± 0.7 µM | 11.4 ± 1.3 µM | 88 µM | – | – | – |
| CCOC(=O)C(C)NP1(=O)COC(Cn2ccc(N)nc2=O)CO1 (single isomer, unassigned; isomer ii) [Ethyl alaninyl cyclic HPMPC—isomer II, Ethyl alaninyl cyclic HPMPC] | 15 ± 11 µM | 26 ± 3.5 µM | > 278 µM | – | – | – |
| Nc1nc(NC2CC2)c2ncn(CCOCP(=O)(O)O)c2n1 [PME(N^6-cyclopropyl)DAP] | 23 ± 6.9 µM | 28 ± 13 µM | > 263 µM | – | – | – |
| C[C@H](NP1(=O)CO[C@@H](Cn2ccc(N)nc2=O)CO1)C(=O)OCCc1ccccc1 (stereo partly shown) [Phenethyl alaninyl cyclic HPMPC—mixture, Phenethyl alaninyl cyclic HPMPC] | 7.1 ± 0.3 µM | 6.8 ± 1.8 µM | 207 ± 18 µM | – | – | – |
| Nc1ccn(C[C@H]2COP(=O)(O)CO2)c(=O)n1 [Cyclic HPMPC (cHPMPC), Cyclic HPMPC] | – | – | – | – | – | EC50 (vaccinia virus (VV) [1]; [7]): 38 ± 11 µM; EC50 (cowpox virus (CV) [2]; [8]): 48 ± 8 µM; EC50 (vaccinia virus (VV) [3]): 50.6 ± 13.1 µM; EC50 (cowpox virus (CV) [4]): 48.3 ± 8 µM; EC50 (Monkeypox): 63.6 µM; EC50 (Variola): 45.8 µM; CC50 (in vitro): > 302 µM |
| Nc1nc(=O)n([C@@H]2CS[C@H](CO)O2)cc1F [Coviracil] | – | – | – | > 81 µM | > 81 µM | – |
| Nc1nc(N)c2ncn([C@H]3CO[C@@H](CO)O3)c2n1 [Amdoxovir] | – | – | – | > 300 µM | > 300 µM | – |
| Nc1nc(O)c2ncn(COC(CO)CO)c2n1 [Ganciclovir] | – | – | – | > 300 µM | > 300 µM | – |
| C=C1[C@H](CO)[C@@H](O)C[C@@H]1n1cnc2c(=O)[nH]c(N)nc21 [Entecavir] | – | – | – | 53 µM | 85 µM | – |
| CCCCOC(=O)[C@H](C)NP(=O)(COCCn1cnc2c(N)ncnc21)N[C@@H](C)C(=O)OCCCC [Bis(butylalaninyl)PMEA] | 4.4 ± 0.2 µM | 10 ± 8.2 µM | 100 ± 27 µM | – | – | – |
| Nc1nc2c(ncn2COCCO)c(=O)[nH]1 [Acyclovir] | – | – | – | > 300 µM | > 300 µM | – |
| Butyl salicyl cyclic HPMPC | 32 ± 13 µM | 34 ± 4.2 µM | > 213 µM | – | – | – |
